Results published in patent US8410064B2, “Classical cannabinoid metabolites and methods of use thereof” (priority 2009, dated 2013).

Assays:
[1] = target: T1, recombinant human UGT1A10 (Homo sapiens, UniProt Q9HAW8); experiment: Glucuronidation by recombinant UGT1A10 (activity screen and steady-state kinetics); details: for glucuronidation activity (initial screen): 750 μM substrate, 90 min
T1 sequence (Q9HAW8 26-530): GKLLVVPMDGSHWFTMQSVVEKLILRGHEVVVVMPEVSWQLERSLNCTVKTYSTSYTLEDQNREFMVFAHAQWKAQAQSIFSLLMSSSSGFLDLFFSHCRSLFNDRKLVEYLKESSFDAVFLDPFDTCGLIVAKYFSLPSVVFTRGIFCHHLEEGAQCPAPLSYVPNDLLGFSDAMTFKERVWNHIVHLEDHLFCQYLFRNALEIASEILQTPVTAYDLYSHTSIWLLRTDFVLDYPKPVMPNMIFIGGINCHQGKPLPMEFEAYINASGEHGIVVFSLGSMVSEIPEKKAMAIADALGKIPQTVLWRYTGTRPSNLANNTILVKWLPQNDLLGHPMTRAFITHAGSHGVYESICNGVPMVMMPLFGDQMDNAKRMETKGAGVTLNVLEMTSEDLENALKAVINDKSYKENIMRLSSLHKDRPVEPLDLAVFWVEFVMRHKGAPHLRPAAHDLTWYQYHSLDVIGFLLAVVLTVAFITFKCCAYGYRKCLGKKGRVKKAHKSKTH

recombinant human UGT1A1 = target: T2, recombinant human UGT1A1 (Homo sapiens, UniProt P22309); experiment: Glucuronidation by recombinant UGT1A1 (activity screen and steady-state kinetics); details: UDP-GlcUA 4 mM
T2 sequence (P22309 26-533): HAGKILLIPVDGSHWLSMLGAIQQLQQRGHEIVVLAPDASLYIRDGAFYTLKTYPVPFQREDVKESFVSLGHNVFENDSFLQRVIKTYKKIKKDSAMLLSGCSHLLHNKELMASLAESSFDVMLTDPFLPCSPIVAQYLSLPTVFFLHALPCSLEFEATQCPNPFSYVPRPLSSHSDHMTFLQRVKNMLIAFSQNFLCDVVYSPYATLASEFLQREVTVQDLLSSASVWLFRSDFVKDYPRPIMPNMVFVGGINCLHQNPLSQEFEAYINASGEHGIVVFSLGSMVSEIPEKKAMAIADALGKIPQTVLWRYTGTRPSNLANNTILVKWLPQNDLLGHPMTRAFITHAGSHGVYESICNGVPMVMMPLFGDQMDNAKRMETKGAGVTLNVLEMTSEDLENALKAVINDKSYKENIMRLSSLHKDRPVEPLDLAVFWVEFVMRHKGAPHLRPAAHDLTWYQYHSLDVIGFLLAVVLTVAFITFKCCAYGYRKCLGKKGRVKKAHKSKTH

recombinant human UGT1A3 = target: T3, recombinant human UGT1A3 (Homo sapiens, UniProt P35503); experiment: Glucuronidation by recombinant UGT1A3 (activity screen and steady-state kinetics); details: UDP-GlcUA 4 mM
T3 sequence (P35503 29-534): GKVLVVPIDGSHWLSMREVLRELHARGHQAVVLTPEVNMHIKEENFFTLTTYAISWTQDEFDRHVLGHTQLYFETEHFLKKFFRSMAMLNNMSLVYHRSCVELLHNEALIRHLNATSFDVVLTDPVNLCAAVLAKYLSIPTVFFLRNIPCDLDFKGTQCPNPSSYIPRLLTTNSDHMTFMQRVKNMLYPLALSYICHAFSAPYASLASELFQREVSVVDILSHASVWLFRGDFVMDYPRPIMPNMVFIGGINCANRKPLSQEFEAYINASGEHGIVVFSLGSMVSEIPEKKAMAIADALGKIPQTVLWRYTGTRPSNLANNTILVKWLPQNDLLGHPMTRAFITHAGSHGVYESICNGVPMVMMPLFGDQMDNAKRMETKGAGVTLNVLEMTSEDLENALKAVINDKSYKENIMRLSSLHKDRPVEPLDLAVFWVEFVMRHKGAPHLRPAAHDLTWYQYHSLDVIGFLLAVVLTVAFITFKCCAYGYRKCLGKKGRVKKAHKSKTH

human liver microsomes = experiment: Glucuronidation by human liver microsomes (activity screen); details: human liver microsomes (HLM); 750 μM substrate, UDP-GlcUA 4 mM, 90 min
recombinant human UGT1A9 = target: T4, recombinant human UGT1A9 (Homo sapiens, UniProt O60656); experiment: Glucuronidation by recombinant UGT1A9 (activity screen and steady-state kinetics); details: UDP-GlcUA 4 mM
T4 sequence (O60656 26-530): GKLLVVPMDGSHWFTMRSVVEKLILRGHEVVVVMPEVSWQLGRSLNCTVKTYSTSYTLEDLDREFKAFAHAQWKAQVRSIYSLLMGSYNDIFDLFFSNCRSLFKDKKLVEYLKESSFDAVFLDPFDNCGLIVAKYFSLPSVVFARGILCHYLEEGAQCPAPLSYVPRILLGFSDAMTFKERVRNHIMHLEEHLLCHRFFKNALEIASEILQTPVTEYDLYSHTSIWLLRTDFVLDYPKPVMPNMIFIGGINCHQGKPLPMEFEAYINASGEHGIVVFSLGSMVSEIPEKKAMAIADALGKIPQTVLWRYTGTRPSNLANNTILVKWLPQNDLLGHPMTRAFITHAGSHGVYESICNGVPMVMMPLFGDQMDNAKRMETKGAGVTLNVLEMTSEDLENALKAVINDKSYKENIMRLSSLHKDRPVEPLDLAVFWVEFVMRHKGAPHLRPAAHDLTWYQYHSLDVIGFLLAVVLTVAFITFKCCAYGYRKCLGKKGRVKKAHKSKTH

[2] = substrate: CCCCCc1cc(O)c2c(c1)OC(C)(C)c1ccc(C)cc1-2; experiment: cells, lysate or membranes named; details: UDP-GlcUA 4 mM, 37° C., 30 min, TLC, pH 7.4
[3] = 5 μg membrane protein, 37° C., 30 min, TLC
[4] = 5 μg membrane protein, 37° C., 30 min, TLC, normalized
[5] = other: UGT1A9, 5 μg membrane protein
[6] = other: UGT1A10, 5 μg membrane protein
[7] = other: UGT1A7, 5 μg membrane protein
[8] = other: UGT1A8, 5 μg membrane protein

In the case of `CCCCCc1cc(O)c2c(c1)OC(C)(C)c1ccc(C)cc1-2` [CBN, cannabinol], the “glucuronidation activity (initial screen)” value (“glucuronidation activity” below) ([1]; UDP-GlcUA 4 mM) is reported as “glucuronidated at high levels” and the “effectiveness of conjugation relative to 11-OH-THC” value ([1]; CBN versus 11-OH-THC) is reported as 3 fold.

In the case of `CCCCCc1cc(O)c2c(c1)OC(C)(C)[C@@H]1CCC(C(=O)O)=C[C@@H]21` [COOH-THC, (−)-11-nor-9-carboxy-Δ^9-THC], the Km (recombinant human UGT1A1; [3]) is reported as 170 ± 37 µM, the Vmax (recombinant human UGT1A1; [4]) is reported as 0.22 ± 0.02 nmol/mg protein/min and the “glucuronidation activity” value (recombinant human UGT1A1; 750 μM substrate, 90 min) is reported as “significant amount of activity”. The Km (recombinant human UGT1A3; [3]) was 68 ± 17 µM, the Vmax (recombinant human UGT1A3; [4]) was 0.68 ± 0.06 nmol/mg protein/min and the “glucuronidation activity” value (recombinant human UGT1A3; 750 μM substrate, 90 min) was “highest activity”. For the same molecule, the “glucuronidation activity” value (human liver microsomes) was “significant amount of activity”.

With (±)-11-hydroxy-Δ^9-THC [11-OH-THC] the Km (recombinant human UGT1A9; [3]) was 73 ± 1.9 µM, the Vmax (recombinant human UGT1A9; [4]) was 0.14 ± 0.01 nmol/mg protein/min and the “glucuronidation activity” value (recombinant human UGT1A9; 750 μM substrate, 90 min) was “specifically glucuronidated”. For the same molecule, the Km ([1]; 5 μg membrane protein, UDP-GlcUA 4 mM, 37° C., 30 min, TLC) was 72 ± 19 µM, the Vmax ([1]; 5 μg membrane protein, UDP-GlcUA 4 mM, 37° C., 30 min, TLC, normalized) was 0.33 ± 0.03 nmol/mg protein/min and the “glucuronidation activity” value ([1]; UDP-GlcUA 4 mM) was “specifically glucuronidated”.

B1: recombinant human UGT1A9 (Homo sapiens) (protein)
chain: T4 sequence (O60656 26-530)
B1 showed a Km [2, 5] of 3.4 ± 1.3 µM and a Vmax [2, 5] of 0.0001 µmol/min/mg.

B2: recombinant human UGT1A10 (Homo sapiens) (protein)
chain: T1 sequence (Q9HAW8 26-530)
Molecule B2 has a Km [2, 6] of 59 ± 10 µM and a Vmax [2, 6] of 0.00091 µmol/min/mg.

B3: recombinant human UGT1A7 (Homo sapiens) (protein)
chain: GKLLVVPMDGSHWFTMQSVVEKLILRGHEVVVVMPEVSWQLGRSLNCTVKTYSTSYTLEDQDREFMVFADARWTAPLRSAFSLLTSSSNGIFDLFFSNCRSLFNDRKLVEYLKESCFDAVFLDPFDACGLIVAKYFSLPSVVFARGIFCHYLEEGAQCPAPLSYVPRLLLGFSDAMTFKERVWNHIMHLEEHLFCPYFFKNVLEIASEILQTPVTAYDLYSHTSIWLLRTDFVLEYPKPVMPNMIFIGGINCHQGKPVPMEFEAYINASGEHGIVVFSLGSMVSEIPEKKAMAIADALGKIPQTVLWRYTGTRPSNLANNTILVKWLPQNDLLGHPMTRAFITHAGSHGVYESICNGVPMVMMPLFGDQMDNAKRMETKGAGVTLNVLEMTSEDLENALKAVINDKSYKENIMRLSSLHKDRPVEPLDLAVFWVEFVMRHKGAPHLRPAAHDLTWYQYHSLDVIGFLLAVVLTVAFITFKCCAYGYRKCLGKKGRVKKAHKSKTH
With B3 the Km [2, 7] was 19 ± 3.9 µM and the Vmax [2, 7] was 0.00024 µmol/min/mg.

B4: recombinant human UGT1A8 (Homo sapiens) (protein)
chain: GKLLVVPMDGSHWFTMQSVVEKLILRGHEVVVVMPEVSWQLGKSLNCTVKTYSTSYTLEDLDREFMDFADAQWKAQVRSLFSLFLSSSNGFFNLFFSHCRSLFNDRKLVEYLKESSFDAVFLDPFDACGLIVAKYFSLPSVVFARGIACHYLEEGAQCPAPLSYVPRILLGFSDAMTFKERVRNHIMHLEEHLFCQYFSKNALEIASEILQTPVTAYDLYSHTSIWLLRTDFVLDYPKPVMPNMIFIGGINCHQGKPLPMEFEAYINASGEHGIVVFSLGSMVSEIPEKKAMAIADALGKIPQTVLWRYTGTRPSNLANNTILVKWLPQNDLLGHPMTRAFITHAGSHGVYESICNGVPMVMMPLFGDQMDNAKRMETKGAGVTLNVLEMTSEDLENALKAVINDKSYKENIMRLSSLHKDRPVEPLDLAVFWVEFVMRHKGAPHLRPAAHDLTWYQYHSLDVIGFLLAVVLTVAFITFKCCAYGYRKCLGKKGRVKKAHKSKTH
B4 was tested, and the Km [2, 8] was 44 ± 8.1 µM and the Vmax [2, 8] was 0.00049 µmol/min/mg.
